Where “and” joins values, the source holds several entries; their conditions need not be identical. Equal entries are not always repeated. Where two headings read alike, the source gives them in different places.
Legend:
Test in all cases: Disruption of BRAF RBD interaction with Ras (FRET / MOA assay, with Cyclophilin A)
Format in all cases: biochemical
[1] = biological target: KRAS G12D (Homo sapiens, UniProt P01116+P62937, G12D); details: read-out: KRAS G12D FRET data, IC50
From the text: (§1) This protocol may also be executed substituting other Ras proteins or nucleotides.
(§2) The purpose of this biochemical assay was to measure the ability of test compounds to facilitate ternary complex formation between a nucleotide-loaded K-Ras isoform and Cyclophilin A; the resulting ternary complex disrupts binding to a BRAF^RBD construct, inhibiting K-Ras signaling through a RAF effector. Data is reported as IC50 values.
(§3) Compound was present in plate wells as a 10-point 3-fold dilution series starting at a final concentration of 30 μM. After incubation at 25° C. for 3 hours, a mixture of Anti-His Eu-W1024 and anti-GST allophycocyanin was then added to assay sample wells at final concentrations of 10 nM and 50 nM, respectively, and the reaction incubated for an additional 1.5 hours. […] Compounds that facilitate disruption of a K-Ras:RAF complex were identified as those eliciting a decrease in the TR-FRET ratio relative to DMSO control wells.
as §2, with “BRAF^RBDD” for “BRAF^RBD”

[2] = biological target: KRAS G12V (Homo sapiens, UniProt P01116+P62937, G12V); details: KRAS G12V; read-out: KRAS G12V FRET data IC50
From the text: as §1, §2, §3
as §2, with “BRAF^RBDD” for “BRAF^RBD”

[3] = biological target: KRAS WT (Homo sapiens, UniProt P01116+P62937); details: KRAS WT; read-out: KRAS WT FRET data IC50
From the text: as §1, §2, §3
as §2, with “BRAF^RBDD” for “BRAF^RBD”

[4] = biological target: KRAS G12C (Homo sapiens, UniProt P01116+P62937, G12C)
From the text: as §1, §2, §3
as §2, with “BRAF^RBDD” for “BRAF^RBD”

[5] = biological target: KRAS G13D (Homo sapiens, UniProt P01116+P62937, G13D)
From the text: as §1, §2, §3
as §2, with “BRAF^RBDD” for “BRAF^RBD”

[6] = biological target: KRAS G13C (Homo sapiens, UniProt P01116+P62937, G13C)
From the text: as §1, §2, §3
as §2, with “BRAF^RBDD” for “BRAF^RBD”

[7] = biological target: NRAS G12C (Homo sapiens, UniProt P01111+P62937, G12C); details: NRAS G12C; read-out: NRAS G12C FRET data IC50
From the text: as §1, §2, §3
as §2, with “BRAF^RBDD” for “BRAF^RBD”

[8] = biological target: KRAS G12S (Homo sapiens, UniProt P01116+P62937, G12S); details: read-out: KRAS G12S FRET data, IC50
From the text: as §1, §2, §3
as §2, with “BRAF^RBDD” for “BRAF^RBD”

[9] = KRAS G12C, read-out: KRAS G12C FRET data IC50
[10] = KRAS G13D, read-out: KRAS G13D FRET data IC50
[11] = KRAS G13C, read-out: KRAS G13C FRET data IC50
[12] = read-out: KRAS G13C FRET data, IC50

Sequence of KRAS WT (P01116 1-169 isoform P01116-2 limits assumed): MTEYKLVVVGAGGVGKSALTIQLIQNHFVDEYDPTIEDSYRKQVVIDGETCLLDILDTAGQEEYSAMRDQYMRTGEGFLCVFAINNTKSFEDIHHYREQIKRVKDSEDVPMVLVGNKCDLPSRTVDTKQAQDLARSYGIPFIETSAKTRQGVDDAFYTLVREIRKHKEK
Sequence of KRAS WT (P62937 whole entry): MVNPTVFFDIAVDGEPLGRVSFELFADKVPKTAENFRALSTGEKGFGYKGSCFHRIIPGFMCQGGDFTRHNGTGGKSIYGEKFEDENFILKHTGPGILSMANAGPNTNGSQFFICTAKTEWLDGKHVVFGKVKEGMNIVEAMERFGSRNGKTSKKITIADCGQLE
Sequence of KRAS G12V (P01116 1-169 isoform P01116-2 G12V limits assumed): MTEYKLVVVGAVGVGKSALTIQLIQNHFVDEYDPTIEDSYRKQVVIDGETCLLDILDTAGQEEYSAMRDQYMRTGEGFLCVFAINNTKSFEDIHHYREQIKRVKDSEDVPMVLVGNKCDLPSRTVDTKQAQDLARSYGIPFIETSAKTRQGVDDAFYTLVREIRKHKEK
Sequence of KRAS G12V (P62937 whole entry): as the sequence (P62937 whole entry) above
Sequence of KRAS G12S (P01116 1-169 isoform P01116-2 G12S limits assumed): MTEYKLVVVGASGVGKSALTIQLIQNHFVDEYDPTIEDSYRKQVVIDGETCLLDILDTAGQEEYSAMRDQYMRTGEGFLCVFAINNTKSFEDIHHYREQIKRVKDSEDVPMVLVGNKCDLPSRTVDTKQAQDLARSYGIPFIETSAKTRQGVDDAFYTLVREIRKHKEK
Sequence of KRAS G12S (P62937 whole entry): as the sequence (P62937 whole entry) above
Sequence of KRAS G13D (P01116 1-169 isoform P01116-2 G13D limits assumed): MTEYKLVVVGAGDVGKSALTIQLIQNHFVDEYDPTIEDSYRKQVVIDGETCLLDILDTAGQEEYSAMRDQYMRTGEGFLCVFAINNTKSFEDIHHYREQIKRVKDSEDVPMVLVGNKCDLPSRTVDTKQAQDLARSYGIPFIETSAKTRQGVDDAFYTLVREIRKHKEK
Sequence of KRAS G13D (P62937 whole entry): as the sequence (P62937 whole entry) above
Sequence of KRAS G12C (P01116 1-169 isoform P01116-2 G12C): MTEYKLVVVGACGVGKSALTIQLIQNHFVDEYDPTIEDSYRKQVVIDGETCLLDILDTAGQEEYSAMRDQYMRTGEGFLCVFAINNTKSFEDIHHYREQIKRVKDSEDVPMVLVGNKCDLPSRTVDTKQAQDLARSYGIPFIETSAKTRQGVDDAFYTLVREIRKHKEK
Sequence of KRAS G12C (P62937 whole entry): as the sequence (P62937 whole entry) above
Sequence of KRAS G12D (P01116 1-169 isoform P01116-2 G12D limits assumed): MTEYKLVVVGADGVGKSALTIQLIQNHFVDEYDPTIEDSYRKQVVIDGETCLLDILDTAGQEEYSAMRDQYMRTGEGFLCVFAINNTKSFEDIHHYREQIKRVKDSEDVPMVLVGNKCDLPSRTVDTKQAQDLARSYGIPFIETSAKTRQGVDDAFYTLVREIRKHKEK
Sequence of KRAS G12D (P62937 whole entry): as the sequence (P62937 whole entry) above
Sequence of NRAS G12C (P01111 whole entry G12C): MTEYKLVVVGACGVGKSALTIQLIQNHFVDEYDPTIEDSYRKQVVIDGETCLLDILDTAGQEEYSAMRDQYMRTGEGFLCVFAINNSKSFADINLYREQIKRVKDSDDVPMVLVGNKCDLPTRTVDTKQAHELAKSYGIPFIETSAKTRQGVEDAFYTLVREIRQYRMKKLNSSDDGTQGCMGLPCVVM
Sequence of NRAS G12C (P62937 whole entry): as the sequence (P62937 whole entry) above
Sequence of KRAS G13C (P01116 1-169 isoform P01116-2 G13C): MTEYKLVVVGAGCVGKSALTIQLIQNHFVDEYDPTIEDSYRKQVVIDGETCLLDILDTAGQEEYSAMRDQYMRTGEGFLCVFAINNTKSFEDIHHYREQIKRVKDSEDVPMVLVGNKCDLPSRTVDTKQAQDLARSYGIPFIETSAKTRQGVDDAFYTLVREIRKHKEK
Sequence of KRAS G13C (P62937 whole entry): as the sequence (P62937 whole entry) above

Compound | IC50 [1] [µM] | IC50 [2] | IC50 [3] | IC50 [4, 9] | IC50 [5, 10] [µM] | IC50 [6, 11] | IC50 [7] [µM] | IC50 [8] | IC50 [6, 12] [µM] | IC50 ([4]; read-out: KRAS G12C FRET data, IC50) [µM] | IC50 ([5]; KRAS G13D FRET data IC50, KRAS G13D) [µM]
CCn1c(-c2cccnc2[C@H](C)OC)c2c3cc(ccc31)-c1cc(O)cc(c1)C[C@H](NS(=O)(=O)c1cn(C)c(C)n1)C(=O)N1CCC[C@H](N1)C(=O)OCC(C)(C)C2 [Example A197] |  |  | > 10 µM |  |  |  | > 10 |  | > 10 |  | 
C=CC(=O)N1CC[C@H](C(=O)N(C)[C@H](C(=O)N[C@H]2Cc3cccc(c3)-c3ccc4c(c3)c(c(-c3cc(CN(C)C)cnc3[C@H](C)OC)n4CC)CC(C)(C)COC(=O)[C@@H]3CCCN(N3)C2=O)C(C)C)C1 [Example A523] |  | > 10 µM | > 10 µM | 1 to 10 µM | > 10 | > 10 µM | 1 to 10 | > 10 µM |  |  | 
CCn1c(-c2cccnc2[C@H](C)OC)c2c3cc(ccc31)-c1csc(n1)C[C@H](NC(=O)[C@H](C(C)C)N(C)C(=O)N1CC3(CCCN(C)C3=O)C1)C(=O)N1CCC[C@H](N1)C(=O)OCC(C)(C)C2 [Example A453] |  |  |  |  | > 10 |  |  |  |  |  | 
CCn1c(-c2cccnc2[C@H](C)OC)c2c3cc(ccc31)-c1csc(n1)C[C@H](NC(=O)[C@H](C(C)C)N(C)C(=O)C1COC1)C(=O)N1CCC[C@H](N1)C(=O)OCC(C)(C)C2 [Example A245] |  |  |  |  |  |  |  |  |  |  | > 10
CCn1c(-c2cccnc2[C@H](C)OC)c2c3cc(ccc31)-c1cc(O)cc(c1)C[C@H](NS(=O)(=O)CC1CC1)C(=O)N1CCC[C@H](N1)C(=O)OCC(C)(C)C2 [Example A200] |  |  | > 10 µM |  |  |  | > 10 |  | > 10 |  | 

Results, then the molecule that gave them:

IC50 [1] [µM] | IC50 [2] | IC50 [3] | IC50 [4, 9] | IC50 [5, 10] [µM] | IC50 [6, 11] | IC50 [7] [µM] | IC50 [8] | IC50 [6, 12] [µM] | IC50 ([4]; read-out: KRAS G12C FRET data, IC50) [µM] | IC50 ([5]; KRAS G13D FRET data IC50, KRAS G13D) [µM] | Compound
> 10 | > 10 µM | > 10 µM | 0.1 to 1 µM | > 10 | > 10 µM | 0.1 to 1 | > 10 µM |  |  |  | C=CC(=O)N1CC[C@H](C(=O)N(C)[C@H](C(=O)N[C@H]2Cc3nc(cs3)-c3ccc4c(c3)c(c(-c3cccnc3COC)n4CC)CC(C)(C)COC(=O)[C@@H]3CCCN(N3)C2=O)C(C)C)C1 [Example A094]
> 10 | 0.1 to 1 µM | 0.1 to 1 µM | 0.01 to 0.1 µM | 1 to 10 | 0.01 to 0.1 µM | 0.01 to 0.1 | 1 to 10 µM |  |  |  | C=CS(=O)(=O)N1CC[C@H](C(=O)N(C)[C@H](C(=O)N[C@H]2Cc3cc(O)cc(c3)-c3ccc4c(c3)c(c(-c3cccnc3COC)n4CC)CC(C)(C)COC(=O)[C@@H]3CCCN(N3)C2=O)C(C)C)C1 [Example A069]
0.1 to 1 | 0.01 to 0.1 µM | 0.1 to 1 µM | 0.01 to 0.1 µM | 0.1 to 1 | 0.1 to 1 µM |  | 0.01 to 0.1 µM |  |  |  | C=CC(=O)N1CC[C@H](C(=O)N(C)[C@H](C(=O)N[C@H]2Cc3cc(O)cc(c3)-c3ccc4c(c3)c(c(-c3cnccc3COC)n4CC)CC(C)(C)COC(=O)[C@@H]3CCCN(N3)C2=O)C(C)C)C1 [Examples A028]
0.1 to 1 | 1 to 10 µM | 0.1 to 1 µM |  | 0.1 to 1 |  | 0.1 to 1 | 0.1 to 1 µM | 0.1 to 1 | 0.1 to 1 |  | CCn1c(-c2cnccc2COC)c2c3cc(ccc31)-c1cc(O)cc(c1)C[C@H](NC(=O)[C@H](C(C)C)N(C)C(=O)OC1CNC1)C(=O)N1CCC[C@H](N1)C(=O)OCC(C)(C)C2 [Example A81]
1 to 10 | 1 to 10 µM and > 10 µM | 1 to 10 µM and > 10 µM | 0.01 to 0.1 µM and < 0.01 µM | 1 to 10 | 0.1 to 1 µM and 0.01 to 0.1 µM | < 0.01 | 1 to 10 µM and > 10 µM |  |  |  | CCn1c(-c2ccccc2CCOC)c2c3cc(ccc31)-c1cc(O)cc(c1)C[C@H](NC(=O)[C@H](C(C)C)N(C)C(=O)[C@H]1CCN(C(=O)C#CCN(C)C)C1)C(=O)N1CCC[C@H](N1)C(=O)OCC(C)(C)C2 [Example A038]
